Experimental data as given in publication PMC8733953, “Identifying specific matrix metalloproteinase-2-inhibiting peptides through phage display-based subtractive screening” (Turkish Journal of Biology, 2021).
“Also recorded” adds a separate entry of the source.

System: HUVEC
Assay: Wound-healing (cell migration) assay
Format: cell-based, human
Conditions: peptide 100 μM or EDTA 2 mM, 24 h
Experimental: For cell culture study, human umbilical vein endothelial cells (HUVECs; C2519A) were purchased from Lonza, Basel, Switzerland. The cells were cultured in endothelial complete media, which is composed of endothelial basal media EBM-2 (CC-3156, Lonza) supplemented with 1% penicillin (10,000 units/mL)- streptomycin (10,000 units/mL) (Gibco, Cat No 15140122) and endothelial cell growth medium 2 (EGM-2) SingleQuots (CC-4176, Lonza, Switzerland) containing growth factors (insulin-like growth factor, human fibroblast growth factor, human epidermal growth factor, and vascular endothelial growth factor), and supplements (ascorbic acid, heparin, hydrocortisone, and fetal bovine serum). Cell passage was carried out three times per week, considering the cell doubling time (Erdag et al., 2011). Cell migration was investigated using a wound-healing assay. HUVEC cells were detached from the cell culture flask using 0.25% trypsin-EDTA and harvested when cell confluence was approximately 70%–80%. After confirming that cell viability was at least 90%, the cells were suspended in complete medium to a density of 1 × 10^5 cells/mL. […] Wound areas were measured using the Gen5 software, and the relative wound area per time-point was calculated based on the wound at 0 h.

O=C(O)CN(CCN(CC(=O)O)CC(=O)O)CC(=O)O [EDTA]
wound area still uncovered (wound opening area) (HUVEC monolayer scratched, relative to wound at 0 h, three independent experiments): 82% | effect on wound healing (in words) (HUVEC): no significant wound healing was observed; also recorded: twice the inhibition effect
